Converted amounts (≈) assume the structure as drawn. “And” between values parts separate entries of the source, which are not always exact repeats. Identical values can stand only once. Like-named read-outs stand apart in the source and are kept apart here.
Legend:
[1] = system: Mycobacterium kansasii MK CNCTC My 235/80; experiment: In vitro antimycobacterial evaluation; assay type: cell-based; settings: IC90 value
[2] = system: Trichophyton mentagrophytes 445; experiment: In vitro antifungal susceptibility testing (broth microdilution); assay type: cell-based; settings: M38-A for moulds, IC50 value, read-out: MIC TM
[3] = system: Staphylococcus epidermidis H 6966/08; experiment: In vitro antibacterial susceptibility testing (broth microdilution); settings: read-out: MIC SE
[4] = Lipophilicity determination by RP-HPLC (capacity factor k / log k); assay type: physicochemical; settings: C18 column, MeOH 70% / H2O 30%, isocratic
Protocol: Hydrophobicities (log P/Clog P) of compounds 8 and 9 were calculated using two commercially available programs (ChemOffice Ultra 10.0 and ACD/LogP) and measured by means of RP-HPLC determination of capacity factors k with subsequent calculation of log k. The procedure was performed under isocratic conditions with methanol as an organic modifier in the mobile phase using an end-capped non-polar C18 stationary RP column. The results are shown in Table 1 and illustrated in Figure 1.
A Waters Alliance 2695 XE HPLC separation module and a Waters Photodiode Array Detector 2996 (Waters Corp., Milford, MA, USA) were used. A Symmetry® C18 5 μm, 4.6 × 250 mm, Part No. WAT054275 (Waters Corp., Milford, MA, USA) chromatographic column was used. The HPLC separation process was monitored by Empower™ 2 Chromatography Data Software, Waters 2009 (Waters Corp., Milford, MA, USA). A mixture of MeOH p.a. (70%) and H2O-HPLC – Mili-Q Grade (30%) was used as a mobile phase. The total flow of the column was 1.0 mL/min, injection volume, 30 μL, column temperature, 30 °C and sample temperature, 10 °C. The detection wavelength of 210 nm was chosen. The KI methanolic solution was used for the dead time (tD) determination. Retention times (tR) were measured in minutes. The capacity factors k were calculated using the Empower™ 2 Chromatography Data Software according to formula k = (tR - tD)/tD, where tR is the retention time of the solute, whereas tD denotes the dead time obtained using an unretained analyte. Log k, calculated from the capacity factor k, is used as the lipophilicity index converted to log P scale.

[5] = system: Staphylococcus aureus CCM 4516/08; experiment: In vitro antibacterial susceptibility testing (broth microdilution); settings: read-out: MIC SA
[6] = system: Mycobacterium avium MA CNCTC My 330/88; experiment: In vitro antimycobacterial evaluation; assay type: cell-based; settings: IC90 value
Candida tropicalis 156 = experiment: In vitro antifungal susceptibility testing (broth microdilution); assay type: cell-based; settings: M27-A2 for yeasts, IC80 value
[7] = system: Mycobacterium tuberculosis MTB CNCTC My 331/88; experiment: In vitro antimycobacterial evaluation; assay type: cell-based; settings: IC90 value
[8] = system: Enterococcus sp. J 14365/08; experiment: In vitro antibacterial susceptibility testing (broth microdilution); settings: read-out: MIC EF
[9] = system: photosynthetic electron transport (PET) in spinach chloroplasts; experiment: Inhibition of photosynthetic electron transport (PET) in spinach chloroplasts; assay type: biochemical, Spinacia oleracea L.; settings: DCPIP photoreduction
Protocol: Chloroplasts were prepared from spinach (Spinacia oleracea L.) according to Masarovicova and Kralova. The inhibition of photosynthetic electron transport (PET) in spinach chloroplasts was determined spectrophotometrically (Genesys 6, Thermo Scientific, USA), using an artificial electron acceptor 2,6-dichlorophenol-indophenol (DCIPP) according to Kralova et al., and the rate of photosynthetic electron transport was monitored as a photoreduction of DCPIP. The measurements were carried out in phosphate buffer (0.02 mol/L, pH 7.2) containing sucrose (0.4 mol/L), MgCl2 (0.005 mol/L) and NaCl (0.015 mol/L). The chlorophyll content was 30 mg/L in these experiments and the samples were irradiated (~100 W/m^2) from 10 cm distance with a halogen lamp (250 W) using a 4 cm water filter to prevent warming of the samples. The studied compounds were dissolved in DMSO due to their limited water solubility. […] The inhibitory efficiency of the studied compounds was expressed by IC50 values, i.e. by molar concentration of the compounds causing 50% decrease in the oxygen evolution rate relative to the untreated control.

[10] = system: methicilin resistant Staphylococcus aureus H 5996/08; experiment: In vitro antibacterial susceptibility testing (broth microdilution); settings: MRSA, read-out: MIC MRSA

Structure (SMILES)	MIC ([1]; 14h)	MIC ([1]; 21h)	MIC ([2]; 72h)	MIC ([2]; 120h)	MIC ([3]; H6966/08, 24 h)	MIC ([3]; H6966/08, 48 h)	log k [4]	MIC ([5]; CCM4516, 24 h)	MIC ([5]; CCM4516, 48 h)	MIC ([6]; 14h)	MIC ([6]; 21h)	MIC (Candida tropicalis 156; 24h)	MIC (Candida tropicalis 156; 48h)	MIC ([7]; 14h)	MIC ([7]; 21h)	MIC ([8]; SP.J14365/08, 24 h)	MIC ([8]; SP.J14365/08, 48 h)	IC50 [9]	MIC ([10]; 24 h)	MIC ([10]; 48 h)
O=C(CNC(=O)c1cc(Cl)ccc1O)Nc1cccc(Cl)c1 [8a]	250 µM (≈ 84.8 µg/mL)	250 µM (≈ 84.8 µg/mL)	125 µM (≈ 42.4 µg/mL)	125 µM (≈ 42.4 µg/mL)	> 250 µM	> 250 µM	0.2439	> 250 µM	> 250 µM	62.5 µM (≈ 21.2 µg/mL)	62.5 µM (≈ 21.2 µg/mL)	125 µM (≈ 42.4 µg/mL)	125 µM (≈ 42.4 µg/mL)	125 µM (≈ 42.4 µg/mL)	125 µM (≈ 42.4 µg/mL)	> 250 µM	> 250 µM	379 µM	> 250 µM	> 250 µM
CC(C)[C@H](NC(=O)c1cc(Cl)ccc1O)C(=O)Nc1cccc(Cl)c1 [8d]	62.5 µM (≈ 23.8 µg/mL)	125 µM (≈ 47.7 µg/mL)	> 125 µM	> 125 µM	> 125 µM	> 125 µM	0.6124	> 125 µM	> 125 µM	125 µM (≈ 47.7 µg/mL)	125 µM (≈ 47.7 µg/mL)	> 125 µM	> 125 µM	32 µM (≈ 12.2 µg/mL)	62.5 µM (≈ 23.8 µg/mL)	> 125 µM	> 125 µM	13.8 µM	> 125 µM	> 125 µM
CC(C)[C@@H](NC(=O)c1cc(Cl)ccc1O)C(=O)Nc1cccc(Cl)c1 [8e]	62.5 µM (≈ 23.8 µg/mL)	125 µM (≈ 47.7 µg/mL)	125 µM (≈ 47.7 µg/mL)	125 µM (≈ 47.7 µg/mL)	31.2 µM (≈ 11.9 µg/mL)	31.2 µM (≈ 11.9 µg/mL)	0.61 and 0.6114	15.6 µM (≈ 5.96 µg/mL)	15.6 µM (≈ 5.96 µg/mL)	62.5 µM (≈ 23.8 µg/mL)	125 µM (≈ 47.7 µg/mL)	15.6 µM (≈ 5.96 µg/mL)	62.5 µM (≈ 23.8 µg/mL)	32 µM (≈ 12.2 µg/mL)	62.5 µM (≈ 23.8 µg/mL)	62.5 µM (≈ 23.8 µg/mL)	250 µM (≈ 95.3 µg/mL)	20.4 µM	31.2 µM (≈ 11.9 µg/mL)	31.2 µM (≈ 11.9 µg/mL)

— article PMC6259751, “Investigating Spectrum of Biological Activity of 4- and 5-Chloro-2-hydroxy-N-[2-(arylamino)-1-alkyl-2-oxoethyl]benzamides” (Molecules, 2011)
